Laboratory results as given in publication PMC7612441 (The Febs Journal, 2021).

Columns and labels:
NUDT9 = biological target: T1, NUDT9 (Homo sapiens, UniProt Q9BW91); experiment: isothermal titration calorimetry, one-site fit; type: binding; conditions: Ca2+ (5 mM CaCl2) as cofactor, no hydrolysis; 20 mM HEPES pH 7.5, 150 mM NaCl, 20 °C
T1 sequence (Q9BW91 59-350): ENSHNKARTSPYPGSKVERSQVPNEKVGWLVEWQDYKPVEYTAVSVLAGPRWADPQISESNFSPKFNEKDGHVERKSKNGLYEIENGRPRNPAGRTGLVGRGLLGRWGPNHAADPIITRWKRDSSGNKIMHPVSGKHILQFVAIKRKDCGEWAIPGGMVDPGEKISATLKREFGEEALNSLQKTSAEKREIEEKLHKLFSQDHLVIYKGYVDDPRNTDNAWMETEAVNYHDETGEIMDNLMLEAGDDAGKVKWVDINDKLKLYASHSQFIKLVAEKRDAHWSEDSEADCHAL

NUDT9trC RIL = biological target: T2, NUDT9trC RIL (Homo sapiens, UniProt Q9BW91, E230I/F231L); experiment: isothermal titration calorimetry, one-site fit; type: binding; conditions: Mg2+ (5 mM MgCl2) as cofactor; 20 mM HEPES pH 7.5, 150 mM NaCl, 20 °C; catalytically inactive mutant
T2 sequence (Q9BW91 59-339 E230I/F231L): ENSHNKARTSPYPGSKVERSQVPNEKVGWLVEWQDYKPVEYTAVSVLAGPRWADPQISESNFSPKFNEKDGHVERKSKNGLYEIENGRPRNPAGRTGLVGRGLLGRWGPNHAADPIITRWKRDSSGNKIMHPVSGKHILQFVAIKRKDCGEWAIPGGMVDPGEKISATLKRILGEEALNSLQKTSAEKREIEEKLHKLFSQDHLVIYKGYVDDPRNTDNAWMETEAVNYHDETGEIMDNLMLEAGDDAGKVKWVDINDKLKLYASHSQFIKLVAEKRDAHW

| Kd (NUDT9) [nM] | Kd (NUDT9trC RIL) [nM] | SMILES |
| --- | --- | --- |
| 12 ± 4 | 16 ± 4 | Nc1ncnc2c1ncn2[C@@H]1O[C@H](COP(=O)(O)OP(=O)(O)OC[C@H]2OC(O)[C@H](O)[C@@H]2O)[C@@H](O)[C@H]1O (stereo partly shown) [ADPR] |
| 9 ± 2 | 12 ± 7 | Nc1ncnc2c1ncn2[C@H]1C[C@H](O)[C@@H](COP(=O)(O)OP(=O)(O)OC[C@H]2OC(O)[C@H](O)[C@@H]2O)O1 (stereo partly shown) [2′‐deoxy‐ADPR] |
